Molecular target: T1, human COX-2 (Homo sapiens, UniProt P35354)
T1 construct: purchased Cayman Chemical, Ann Arbor, Mich
T1 sequence (P35354 18-604): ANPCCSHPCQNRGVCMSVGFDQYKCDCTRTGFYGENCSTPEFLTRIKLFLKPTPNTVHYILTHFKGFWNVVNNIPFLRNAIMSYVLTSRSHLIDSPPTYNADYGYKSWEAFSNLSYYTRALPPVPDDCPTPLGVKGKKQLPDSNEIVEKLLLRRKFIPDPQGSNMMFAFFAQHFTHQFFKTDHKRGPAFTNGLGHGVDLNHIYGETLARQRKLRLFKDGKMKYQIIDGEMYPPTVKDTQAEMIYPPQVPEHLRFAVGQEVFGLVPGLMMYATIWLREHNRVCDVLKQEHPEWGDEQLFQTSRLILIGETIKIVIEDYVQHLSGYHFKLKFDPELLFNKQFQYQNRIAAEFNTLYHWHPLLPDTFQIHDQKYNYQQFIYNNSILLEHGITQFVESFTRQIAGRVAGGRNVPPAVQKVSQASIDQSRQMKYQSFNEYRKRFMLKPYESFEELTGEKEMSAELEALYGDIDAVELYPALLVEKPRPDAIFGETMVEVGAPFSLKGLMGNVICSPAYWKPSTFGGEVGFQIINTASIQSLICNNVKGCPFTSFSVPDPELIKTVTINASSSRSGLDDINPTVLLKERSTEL
Assay: Assay for human COX-2 activity (COX Inhibitor Screening Assay, Cayman)
Format: biochemical
Conditions: human COX-2, at 10 μM
Method: The human COX-1 and COX-2 activities and the measurement of the prostaglandin products synthesized were performed using the COX Inhibitor Screening Assay (Cayman Chemical, Ann Arbor, Mich., which also contained the Prostaglandin Screening EIA Kit, used for prostaglandin quantification). The test compounds were dissolved at 50 times the highest final reaction concentration in DMSO or any other suitable solvent as stock solutions. These stock solutions were then diluted in the same solvent. Eight glass test tubes (13×100 mm) were placed in a 25° C. water bath. To each test tube was added 950 μL of reaction buffer (0.1 M Tris-HCl, pH 8.0, containing 5 mM EDTA, and 2 mM phenol), 10 μL of 100 µM heme solution, and 10 μL (5 units) of either human COX-1 or COX-2 and the resulting mixture incubated with the enzyme for 2 minutes. Twenty μL of the solvent was added to one tube (100% initial activity or solvent control) and 20 μL of each dilution of the test compound was added to one tube each. Each tube was vortexed immediately after the addition. The enzyme was incubated with the inhibitor for 20 minutes at 25° C. The enzymatic reaction was then initiated by the addition of 10 μL of freshly prepared 10 mM arachidonic acid (neutralized with KOH), vortexed and then incubated for 2 minutes (or, in some cases as indicated, 30 seconds) at 37° C. The reaction was terminated by the addition of 50 μL of 1 M HCl, vortexed and placed at room temperature. One hundred microliters of a saturated stannous chloride solution (50 mg/mL of 0.1 M HCl) was added and the reaction mixture was allowed to stand at room temperature for at least 5 min.
The prostaglandins (PG) produced in the reactions were assayed, after a 2,000-fold dilution, using the Prostaglandin Screening EIA Kit (Cayman Chemical, Ann Arbor, Mich.). The assay contains an antibody with broad specificity for all the prostaglandin families (PGF, PGE, PGD, and thromboxane B-type) synthesized in the COX-1/COX 2 reactions. The synthesized prostaglandin competes with a PG-tagged acetylcholine esterase tracer for binding to the PG antibody. Binding of synthesized PG lowers the colorimetric development of the Ellman's Reagent (computed as % B/B0). The actual amount of synthesized PG was interpolated from a standard curve using known amounts of supplied prostaglandin E2 (PGE2) (PGE2 concentration vs. % B/B0). The data generated were the mean±standard deviation of triplicate wells in the EIA for a single reaction at a given inhibitor concentration.

## NS(=O)(=O)c1ccc(-c2c(-c3ccccc3)noc2CO[N+](=O)[O-])cc1 [Example 2b, 4-(5-((Nitrooxy)methyl)-3-phenylisoxazol-4-yl)benzenesulfonamide]
  inhibition at 10 µM: 100%

Source: patent US7166618B2, “Nitrosated and nitrosylated cyclooxygenase-2 inhibitors, compositions and methods of use” (NitroMed, Inc., priority 1999, dated 2007)
